Like-named read-outs stand apart in the source and are kept apart here.

The source of these data is patent publication US10688110B2 (NanGenex Nanotechnology Incorporated, priority 2015, dated 2020).

For data set [1] the following is noted: cited from earlier work.
For data set [2] the following is noted: healthy subjects, within the clinical dose range; cited from earlier work.
For data set [3] the following is noted: cited from earlier work. This is another data set of the same source.
Data set [4] in a line: PAMPA permeability. Type of data set: in vitro ADME. Conditions: pH 7, simulated saliva condition.
Where [5] appears, read: single oral dose of radiolabeled drug.

The Papp is a coefficient for how fast a substance crosses the barrier. Regarding `Cc1ccc(-c2cc(C(F)(F)F)nn2-c2ccc(S(N)(=O)=O)cc2)cc1` [Celecoxib, 4-[5-(4-methylphenyl)-3-(trifluoromethyl)-1H-pyrazol-1-yl] benzenesulfonamide], the “time of peak plasma levels” value in data set [1] (after an oral dose) is recorded as “approximately 3 hrs”. Besides, the effective half-life result in data set [1] (fasted conditions) is on record as “approximately 11 hours”. The “dose proportionality of Cmax and AUC” value in data set [1] (fasting conditions, up to 200 mg BID) is “roughly dose-proportional”. Besides, the “overall systemic exposure (AUC), intact capsule vs capsule contents sprinkled on applesauce” value in data set [1] (healthy adult volunteers) was “equivalent”. In addition, in data set [1] (human, in vivo), the “apparent plasma clearance (CL/F)” value was “about 500 mL/min”; the “unchanged drug recovered in the urine and feces” value is reported as less than 3%. In addition, the steady-state conditions reached in data set [1] (multiple dosing) is not above 5 days. Also, the “time of peak plasma levels” value in data set [1] (single dose of 200 mg of current formulation, oral) was 3 h. The “onset of pain relief” value in data set [1] (single dose of 200 mg of current formulation) was not below 1 h. In addition, in data set [1] (setting [5]), the “dose excreted in the feces” value is “approximately 57%” and the “dose excreted into the urine” value was 27%. For the same molecule, the protein bound in data set [2] is listed as approximately 97%. For the same molecule, in data set [3], the “solubility in methanol and chloroform” value is recorded as “soluble”; the solubility in water result was “insoluble”. The Papp in data set [4] was 0.3 ×10⁻⁶ cm/s.
